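Five concentrations, 48 hours, 96-well plates. At the GI50, growth is halved.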 Activity calls are given as the source filed them. Cut-off read from the data, not from the text of the source: active = GI50 up to about 1.1 µM and inactive = higher.

We go through 13 molecules from ChEMBL document CHEMBL1201862, “PubChem BioAssay data set” (2004).

Among the test systems are UO-31; SF-295; TK-10; SK-OV-3; KM12; A549; SW-620; SK-MEL-28; SR; M14; ACHN; NCI-H522; UACC-257; SN12C; HCC 2998; K562.
Assay in all cases: NCI anticancer screen, dose series, 48 h

`CCOc1ccc(NC(=O)CC2SC(Nc3ccc(C)cc3)=NC2=O)cc1` (centres undefined): the GI50 in the test on UO-31, in the test with SF-295, in the test on TK-10, in the test with SK-OV-3, with KM12 and in the test on A549 was > 100 µM (inactive) throughout. Further, the GI50 in the test with SW-620 is > 100 µM (inactive); in the test with SK-MEL-28 it was > 100 µM (inactive); in the test on SR, 50.9 µM (inactive); in the test on M14, > 100 µM (inactive); in the test with ACHN, > 100 µM (inactive); in the test on NCI-H522 it was > 100 µM (inactive). Moreover, the GI50 in the test with UACC-257 and in the test on SN12C was > 100 µM (inactive) in each case.
Take `O=C1c2cccc(O)c2C(=O)c2c(O)cccc21` [DANTHRON]: the GI50 in the test with UO-31 is > 100 µM (inactive); in the test with SF-295 it was 55.6 µM (inactive); in the test with TK-10, > 100 µM (inactive); with SK-OV-3, > 100 µM (inactive); in the test with KM12 it was > 100 µM (inactive); with A549, 56.1 µM (inactive). Moreover, the GI50 was 88.7 µM (inactive) in the test on HCC 2998; 64.1 µM (inactive) in the test with SW-620; > 100 µM (inactive) with SK-MEL-28; 43.3 µM (inactive) in the test on SR; 97.7 µM (inactive) in the test on M14; > 100 µM (inactive) with ACHN. In addition, the GI50 with NCI-H522 was 62.7 µM (inactive); in the test with K562 it was 92.9 µM (inactive); with UACC-257, 85.1 µM (inactive); in the test with SN12C it was > 100 µM (inactive).
As for `CNS(=O)(=O)NN(C)S(=O)(=O)c1ccc2ccccc2c1`, the GI50 in the test with UO-31, in the test with SF-295, in the test with TK-10, with SK-OV-3, with KM12 and with A549 was > 100 µM (inactive) in each case. The GI50 in the test with HCC 2998, in the test with SW-620, in the test with SR, with M14, with ACHN and with NCI-H522 was > 100 µM (inactive) in each case. Moreover, the GI50 with K562, with UACC-257 and with SN12C was > 100 µM (inactive) each time.
As for `CN(/C(=N\O)c1ccccc1)c1ccccc1`, the GI50 with UO-31 was 25.5 µM (inactive); in the test on SF-295, 21 µM (inactive); in the test with KM12, 36.3 µM (inactive); in the test on A549, 47 µM (inactive); with HCC 2998, 25.9 µM (inactive); in the test on SW-620, 32.2 µM (inactive). Besides, the GI50 in the test on SR was 25 µM (inactive); in the test on M14, 21.6 µM (inactive); in the test with NCI-H522 it was 18 µM (inactive); in the test with UACC-257 it was 38.6 µM (inactive); in the test with SN12C, 32.1 µM (inactive).
In the case of `CC(CC(=O)Nc1ccc(NC(=O)CC(C)/N=N\C(N)=O)cc1)/N=N\C(N)=O` (centres undefined), the GI50 with UO-31, with SF-295, in the test with TK-10, with SK-OV-3, in the test on KM12 and in the test on A549 was > 100 µM (inactive) throughout. The GI50 was > 100 µM (inactive) with HCC 2998; > 100 µM (inactive) in the test on SK-MEL-28; 22.8 µM (inactive) in the test on SR; > 100 µM (inactive) in the test on M14; > 100 µM (inactive) with ACHN; > 100 µM (inactive) in the test with NCI-H522. In addition, the GI50 with K562, in the test with UACC-257 and in the test on SN12C was > 100 µM (inactive) in each case.
For the molecule `C=C(C(=C)N1N=NC2C3CCC(C3)C21)N1N=NC2C3CCC(C3)C21` (centres undefined), the GI50 in the test on UO-31, in the test with SF-295, with TK-10, with KM12, in the test with A549 and in the test with HCC 2998 was > 100 µM (inactive) in each case. Besides, the GI50 was > 100 µM (inactive) in the test with SW-620; > 100 µM (inactive) in the test with SK-MEL-28; 38.7 µM (inactive) in the test with SR; > 100 µM (inactive) with M14; > 100 µM (inactive) in the test with ACHN; 66.5 µM (inactive) in the test on NCI-H522. In addition, the GI50 in the test on K562 is 65.2 µM (inactive); in the test on UACC-257 it was > 100 µM (inactive); with SN12C it was > 100 µM (inactive).
`CCCSS[C@H]1NC(=O)[C@H]1NC(=O)COc1ccccc1`: the GI50 is 32.5 µM (inactive) in the test on UO-31; 41.9 µM (inactive) with SF-295; 27.9 µM (inactive) in the test on TK-10; > 100 µM (inactive) in the test with SK-OV-3; 17.2 µM (inactive) with KM12; 24.4 µM (inactive) in the test on A549. Further, the GI50 with HCC 2998 is 15.5 µM (inactive); in the test on SW-620, 5.74 µM (inactive); with SK-MEL-28, 16.6 µM (inactive); with SR, 3.16 µM (inactive); in the test with M14, 12 µM (inactive); in the test on ACHN it was 16.6 µM (inactive). For the same molecule, the GI50 was 6.19 µM (inactive) with K562, 14.4 µM (inactive) with UACC-257 and 15.1 µM (inactive) in the test on SN12C.
On to `CN(C)CC/[N+]([O-])=C(/c1ccccc1)C12CC3CC(CC(C3)C1)C2`, for which the GI50 in the test on UO-31 is 11.9 µM (inactive); in the test with SF-295, 14 µM (inactive); in the test on TK-10, 16.7 µM (inactive); with SK-OV-3, 17.1 µM (inactive); in the test on KM12, 18.3 µM (inactive); with A549 it was 18.4 µM (inactive). The GI50 in the test on HCC 2998 was 22.2 µM (inactive); in the test with SK-MEL-28, 16.2 µM (inactive); with SR, 16.2 µM (inactive); with M14, 13.4 µM (inactive); in the test on ACHN, 16.3 µM (inactive); in the test with NCI-H522 it was 15.1 µM (inactive). Further, the results for the GI50 in the test on K562, in the test with UACC-257 and in the test on SN12C were 15.1 µM (inactive), 15.9 µM (inactive) and 17.2 µM (inactive), respectively.
Regarding `O=C1/C(=C/c2ccccc2)CN(C(=O)OCC(Cl)(Cl)Cl)C/C1=C\c1ccccc1`, the GI50 in the test on UO-31 was 3.52 µM (inactive); in the test on SF-295, 1.83 µM (inactive); in the test with TK-10, 4.46 µM (inactive); with SK-OV-3 it was 7.48 µM (inactive); in the test on KM12, 1.69 µM (inactive); in the test on A549 it was 5.02 µM (inactive). Besides, the GI50 in the test with SW-620 was 1.09 µM (active); with SK-MEL-28, 1.66 µM (inactive); in the test with SR it was 2.07 µM (inactive); in the test with M14 it was 2.14 µM (inactive); in the test with ACHN it was 1.98 µM (inactive); in the test with NCI-H522 it was 3.47 µM (inactive). For the same molecule, the results for the GI50 in the test on K562, with UACC-257 and in the test with SN12C were 1.32 µM (inactive), 2.09 µM (inactive) and 1.84 µM (inactive), respectively.
Consider `O=C(O)c1ccc(O)c(/N=N/c2cc(S(=O)(=O)O)c3ccccc3c2O)c1`, for which the GI50 in the test on UO-31 was > 100 µM (inactive); in the test with SF-295, > 10 µM (inactive); in the test with TK-10, > 100 µM (inactive); in the test on SK-OV-3 it was > 10 µM (inactive); in the test with KM12, > 100 µM (inactive); with A549 it was > 100 µM (inactive). In addition, the GI50 in the test on HCC 2998, in the test on SW-620, in the test on SK-MEL-28, in the test on SR, in the test with ACHN and in the test with K562 was > 100 µM (inactive) each time. Also, the values for the GI50 in the test on UACC-257 and in the test with SN12C were > 10 µM (inactive) and > 100 µM (inactive), respectively.
As for `CCOC(=O)NC(=O)c1cn(C2OC(CO)C(O)C2O)c(=O)[nH]c1=O` (centres undefined), the GI50 in the test with UO-31, in the test with SF-295, in the test with SK-OV-3, in the test on KM12, in the test with A549 and in the test on HCC 2998 was > 100 µM (inactive) in each case. The GI50 in the test with SW-620, in the test with SK-MEL-28, with SR, in the test with M14, with ACHN and with NCI-H522 was > 100 µM (inactive) in each case. Further, the GI50 with K562, with UACC-257 and in the test on SN12C was > 100 µM (inactive) in each case.
With `COc1ccc(C2=NNC(=O)OC2c2ccccc2)cc1` (centres undefined), the GI50 with UO-31 is > 100 µM (inactive); in the test on SF-295, 22.4 µM (inactive); in the test on TK-10, > 100 µM (inactive); in the test with KM12, 40.9 µM (inactive); in the test on A549, 51.5 µM (inactive); with HCC 2998, 34.1 µM (inactive). Also, the GI50 was 38.9 µM (inactive) with SW-620; > 100 µM (inactive) with SK-MEL-28; 55.2 µM (inactive) in the test on SR; 50.7 µM (inactive) in the test on M14; > 100 µM (inactive) in the test with ACHN; 26.7 µM (inactive) with K562. Moreover, the GI50 is 28.9 µM (inactive) in the test with UACC-257 and > 100 µM (inactive) in the test on SN12C.
With `CCCC(=O)N[C@@H](Cc1cc(I)c(O)c(I)c1)C(=O)NCCCNCCCCNCCCNC(=O)[C@@H](N)CCCN=C(N)N`, the GI50 in the test on UO-31 was 29.8 µM (inactive); with SF-295, > 10 µM (inactive); in the test with TK-10 it was > 100 µM (inactive); with KM12, 55 µM (inactive); with A549, > 100 µM (inactive); in the test on HCC 2998, 42.3 µM (inactive). The GI50 with SW-620 is > 100 µM (inactive); in the test on SK-MEL-28, 50.4 µM (inactive); with SR, > 100 µM (inactive); in the test with M14 it was 25.7 µM (inactive); in the test on ACHN, 40.1 µM (inactive); with NCI-H522, 11.2 µM (inactive). Besides, the GI50 is 45.1 µM (inactive) in the test on K562, > 100 µM (inactive) with UACC-257 and > 100 µM (inactive) with SN12C.
